Data published in patent publication US20260373119A1, “NOVEL COMPOUND, AND COMPOSITION FOR PREVENTING OR TREATING HER2-POSITIVE CANCER, COMPRISING SAME” (EWHA UNIVERSITY - INDUSTRY COLLABORATION FOUNDATION, priority 2022, published 2026).

Legend:
[1] = molecular target: T1, (His)6-MED23391-582 / FITC-ELF3129-145 peptide (Homo sapiens, UniProt Q9ULK4); experiment: fluorescence polarization displacement assay; format: binding; conditions: 80 nM (His)6-MED23391-582, 10 nM FITC-ELF3129-145; Cheng-Prusoff; read-out: PPI inhibitory activity calculated based on Ki value
T1 construct: 391-582 and fluorescein isothiocyanate (FITC)-labeled
T1 sequence (Q9ULK4 391-582 limits assumed): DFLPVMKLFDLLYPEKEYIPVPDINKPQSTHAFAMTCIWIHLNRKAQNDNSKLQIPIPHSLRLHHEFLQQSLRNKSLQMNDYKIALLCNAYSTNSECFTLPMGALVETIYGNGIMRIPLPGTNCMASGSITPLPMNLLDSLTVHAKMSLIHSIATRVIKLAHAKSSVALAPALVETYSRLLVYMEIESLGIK
Protocol: The samples, adjusted to a final volume of 50 μL, were incubated at room temperature for 30 minutes. Kd values were calculated using a least-squares non-linear fit method with Prism 6.0 software (GraphPad Software, USA). FP signals were measured in millipolarization (mP) units using an Infinite F200 PRO microplate reader (Tecan Group Ltd., Switzerland) at an excitation wavelength of 485 nm and an emission wavelength of 535 nm. For displacement analysis, graded concentrations of YK1 and unlabeled ELF3137-144 peptides were mixed with 80 nM (His) 6-MED23391-582 and 10 nM FITC-ELF3129-145.
The effect of compound YK1 was confirmed by measuring the reduction in FP signals, using unlabeled peptides as a positive control. The IC50 of each compound was determined by fitting the data to a four-parameter logistic equation using the Table Curve 2D program (SPSS Inc.). The Ki value was calculated using the Cheng-Prusoff equation (Ki=IC50/1+([Ligand]/Kd))

[2] = molecular target: T2, ELF3-MED23 protein-protein interaction (Homo sapiens, UniProt Q9ULK4); conditions: cited from earlier work; for PPI inhibitory activity relative to gefitinib: ELF3-MED23 PPI
T2 construct: followed by the addition of either the candidate compound or MED23 protein constructs; endogenous in cells; host or cells: 293T kidney cells (MED23 endogenous; GAL4-ELF3 transfected)
T2 sequence (Q9ULK4 1-1368): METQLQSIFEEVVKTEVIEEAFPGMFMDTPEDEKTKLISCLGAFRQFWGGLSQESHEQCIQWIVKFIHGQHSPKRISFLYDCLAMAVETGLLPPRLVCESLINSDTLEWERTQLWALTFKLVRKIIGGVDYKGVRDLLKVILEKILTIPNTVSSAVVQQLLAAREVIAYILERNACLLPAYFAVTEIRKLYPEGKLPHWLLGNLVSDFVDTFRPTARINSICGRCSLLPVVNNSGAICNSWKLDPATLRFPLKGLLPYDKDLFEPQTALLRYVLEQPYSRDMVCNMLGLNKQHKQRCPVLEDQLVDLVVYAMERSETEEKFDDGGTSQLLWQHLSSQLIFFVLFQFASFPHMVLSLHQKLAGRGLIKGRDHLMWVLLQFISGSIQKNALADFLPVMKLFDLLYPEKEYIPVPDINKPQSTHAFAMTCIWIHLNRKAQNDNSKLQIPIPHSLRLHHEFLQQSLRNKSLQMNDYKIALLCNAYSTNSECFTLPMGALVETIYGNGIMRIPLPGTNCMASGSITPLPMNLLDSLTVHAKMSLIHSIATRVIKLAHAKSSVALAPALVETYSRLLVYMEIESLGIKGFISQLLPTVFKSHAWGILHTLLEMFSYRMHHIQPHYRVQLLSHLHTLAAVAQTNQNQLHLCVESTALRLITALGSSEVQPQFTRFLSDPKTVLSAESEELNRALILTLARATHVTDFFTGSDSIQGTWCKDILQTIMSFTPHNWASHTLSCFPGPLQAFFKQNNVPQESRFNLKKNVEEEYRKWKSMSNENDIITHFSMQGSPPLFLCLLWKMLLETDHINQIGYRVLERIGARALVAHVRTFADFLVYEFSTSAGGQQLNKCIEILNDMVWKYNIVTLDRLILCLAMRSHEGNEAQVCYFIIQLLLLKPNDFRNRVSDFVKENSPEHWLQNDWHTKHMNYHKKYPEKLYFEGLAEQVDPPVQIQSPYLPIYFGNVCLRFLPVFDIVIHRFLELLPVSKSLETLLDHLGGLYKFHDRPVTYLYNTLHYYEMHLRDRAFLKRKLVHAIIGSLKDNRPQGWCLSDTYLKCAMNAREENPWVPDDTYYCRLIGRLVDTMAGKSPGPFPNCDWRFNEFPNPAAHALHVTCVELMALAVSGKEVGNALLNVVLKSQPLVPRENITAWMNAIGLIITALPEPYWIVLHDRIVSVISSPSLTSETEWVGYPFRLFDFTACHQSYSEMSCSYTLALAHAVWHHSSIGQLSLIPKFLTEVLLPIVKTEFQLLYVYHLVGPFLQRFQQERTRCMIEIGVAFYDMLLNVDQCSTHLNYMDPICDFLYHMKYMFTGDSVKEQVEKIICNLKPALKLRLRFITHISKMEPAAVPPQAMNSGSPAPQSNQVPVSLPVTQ

[3] = molecular target: T2, ELF3-MED23 protein-protein interaction; experiment: SEAP reporter assay, ELF3-MED23 PPI inhibition (293T kidney cells); format: cell-based; conditions: 10 μM; for inhibition at 10 µM: HEK-293T
Protocol: To verify whether the D400 and H449 residues play a critical role in the ELF3-MED23 protein-protein interaction, a SEAP assay was performed. Specifically, 293T kidney cells were seeded at a density of 5×10^3 cells/well in a 96-well microplate (SPL, Korea) and cultured overnight. Subsequently, the cells were co-transfected with 100 ng of each plasmid using transfection-optimized medium (Welgene, Korea). The plasmids used included the SEAP reporter gene (pG5IL2SX) and GAL4-ELF3 expression vector (pBJ GAL4-ELF3). For transfection, the cells were incubated with WelFectQ (Welgene, Korea) for 3 hours, followed by the addition of either the candidate compound or MED23 protein constructs (pcDNA MED23^WT, K397A, D400A, H449G, and D400A/H449G). The treated cells were incubated for 12 hours. The candidate compound was added in an incubator at 5% CO2 and 37 °C, and the plate was incubated at 65 °C for 3 hours to inactivate all enzymes except SEAP (Secreted Alkaline Phosphatase). A mixture comprising 100 μL of substrate solution prepared with 1.19 μL of 0.1 M 4-methylumbelliferyl phosphate (Sigma, USA), 25 μL of inactivated medium, and 75 μL of double-distilled water was added, followed by the addition of 98.81 μL of 2 M diethanolamine (pH 10, Sigma, USA). The plate was incubated overnight at 37 °C. Subsequently, the fluorescence intensity was measured using a fluorometer (SPECTRAmax […], Molecular Devices, USA) at an excitation wavelength of 360 nm and an emission wavelength of 440 nm.
To further elaborate on the above findings, small molecule compounds that could affect the ELF3-MED23 PPI were designed and synthesized. Specifically, non-essential side chains were removed from gefitnib, and compounds were designed to include both hydrogen bond donors and acceptors for the D400 and H449 residues of MED23, respectively (FIG. 4A). Specifically, chalcones and pyrazolines were selected as core scaffolds, and 25 compounds (11 chalcones and 14 pyrazoline-based compounds) were prepared. The ELF3-MED23 PPI inhibitory activity of all prepared compounds was measured using a SEAP assay.

[4] = molecular target: MED23 wild-type (FLAG-tagged) (Homo sapiens, UniProt Q9ULK4); experiment: LC-MS/MS protein-small molecule interaction, wild-type MED23; format: binding; conditions: internal standard
Protocol: HEK293 cells were seeded in a […] and incubated until they reached 70-80% confluency. The cells were transfected with p3Xflag-myc-CMV26-MED23^WT and p3Xflag-myc-CMV26-MED23^D400A/H449G plasmids for 24 hours, followed by lysis to obtain protein extracts. To isolate the candidate compound (YK1) bound to MED23, total lysates were incubated with YK1 for 4 hours and subsequently subjected to pulldown using FLAG-agarose beads (Sigma Aldrich, USA). The precipitated beads were washed at least three times to completely remove unbound compounds. To separate the candidate compound from the precipitated MED23, 50 μL of the sample was extracted with 1 mL of acetonitrile and centrifuged at 13,000 rpm at 4 °C for 10 minutes. The supernatant (1,000 μL) from each sample was transferred to a new tube and dried under nitrogen gas at 37 °C. For YK1 analysis, the residue was dissolved in 50 μL of ACN and vortexed for 10 minutes. […] The mixture was then extracted with 450 μL of ACN by ultrasonic treatment and vortex mixing. The candidate compound bound to MED23 was finally analyzed using an Agilent 6460 triple quadrupole mass spectrometer (Agilent Technologies, USA).

[5] = test system: HeLa (HER2-negative cervical cancer cell line); experiment: antiproliferative effect, HeLa; format: cell-based; conditions: Homo sapiens, 72 hours
Protocol: (§1) The antiproliferative effects were measured after treating Compounds 1 to 22 for 72 hours on HCT15 (HER2-positive colorectal cancer cell line), NCI-N87 (HER2-positive gastric cancer cell line), T47D (HER2-negative breast cancer cell line), and HeLa (HER2-negative cervical cancer cell line). As a result, strong antiproliferative effects were generally observed in the NCI-N87 cell line (Table 2).
(§2) The antiproliferative effects of the candidate compound, resulting from HER2 inhibition, were evaluated. Specifically, to confirm the anticancer effects of the candidate compound, cancer cells were seeded at a density of 10^4 cells/well in a 96-well cell culture plate for 20 hours. The cells were starved in serum-free media for 4 hours, followed by replacement with media containing the compound at specified concentrations. The cells were then incubated for 72 hours under conditions of 5% CO2 at 37 °C. Cell viability was determined by adding 5 μL of EZ-CytoX to each well and measuring absorbance at 450 nm. The measurements were performed using an ELISA Microplate Reader (VersaMax, Molecular Devices).

[6] = test system: T47D (HER2-negative breast cancer cell line); experiment: antiproliferative effect, T47D; format: cell-based; conditions: Homo sapiens, 72 hours
Protocol: as §1, §2

[7] = test system: NCI-N87 (HER2-positive gastric cancer cell line); experiment: antiproliferative effect, NCI-N87; format: cell-based; conditions: Homo sapiens, NCI-N87; 72 hours; HER2-positive
Protocol: as §1, §2

[8] = test system: HCT15 (HER2-positive colorectal cancer cell line); experiment: antiproliferative effect, HCT15; format: cell-based; conditions: Homo sapiens, HCT-15, 72 hours
Protocol: as §1, §2

For “ELF3137-144: ELF3137-144 peptide (8 a.a.), amino acids 137-144 of ELF3 (SWIIELLE; UniProt P78545 137-144, looked up, fragment) [reference compound]”, the Ki [1] is listed as 0.78 ± 0.05 µM, the “PPI inhibitory activity relative to gefitinib” value [2] is listed as “superior PPI inhibitory activity compared to gefitinib” and the “SEAP assay Inhibition (%)” value [3] is listed as 53%.

For `Cc1ccc(S(=O)(=O)n2ccc3c(OCC(O)CN(CCCCCN)C(=O)N4CCC(C5CCN(C(=O)C67CC8CC(CC(C8)C6)C7)CC5)CC4)cccc32)cc1` (centres unmarked) [wrenchnolol], the “known ELF3-MED23 PPI inhibition” value [2] is listed as “inhibit ELF3-MED23 protein-protein interaction (PPI)”.

In the case of `COc1cc2ncnc(Nc3ccc(F)c(Cl)c3)c2cc1OCCCN1CCOCC1` [Gefitinib, gefitinib, reference compound], the “known ELF3-MED23 PPI inhibition” value [2] is listed as “inhibit ELF3-MED23 protein-protein interaction (PPI)” and the inhibition at 10 µM [3] is listed as 85%.

In the case of `C=CC(=O)Nc1cc2c(Nc3ccc(F)c(Cl)c3)ncnc2cc1OCCCN1CCOCC1` [canertinib], the “PPI inhibitory activity relative to gefitinib” value [2] is given as “superior PPI inhibitory activity compared to gefitinib” and the “known ELF3-MED23 PPI inhibition” value [2] is given as “inhibit ELF3-MED23 protein-protein interaction (PPI)”.

With `COc1ccc(C2CC(c3ccccc3O)=NN2C(C)=O)c2ccccc12` (centres unmarked) [Compound 18, 1-[3-(2-Hydroxyphenyl)-5-(4-methoxynaphthalen-1-yl)-4,5-dihydropyrazol-1-yl]-ethanone] the “binding affinity to MED23 relative to candidate compound” value [4] was “lower binding affinity to MED23”, the IC50 [5] was 6.69 ± 0.4 µM and the IC50 [6] was 29.28 ± 0.27 µM. It also gave an IC50 [7] of over 50 µM, an inhibition at 10 µM [3] of 0% and an IC50 [8] of 19.7 ± 0.05 µM.

With `COc1ccc(C2CC(c3cccc(O)c3)=NN2C(C)=O)cc1` (centres unmarked) [Compound 13, 1-[3-(3-Hydroxyphenyl)-5-(4-methoxyphenyl)-4,5-dihydropyrazol-1-yl]-ethanone] the IC50 [5] was over 50 µM, the IC50 [6] was over 50 µM and the IC50 [7] was over 50 µM. For the same molecule, the inhibition at 10 µM [3] was 58% and the IC50 [8] was over 50 µM.

In the case of `O=C(/C=C/c1ccco1)c1cccc(O)c1` [Compound 1, 3-Furan-2-yl-1-(3-hydroxyphenyl)-propenone], the IC50 [5] is reported as 19.5 ± 0.04 µM, the IC50 [6] is reported as 8.48 ± 0.02 µM and the IC50 [7] is reported as 13.5 ± 0.29 µM. The inhibition at 10 µM [3] was 86% and the IC50 [8] was 29.66 ± 0.14 µM.

In the case of `CC(C)N(CC(O)COc1cccc2[nH]ccc12)C(=O)N1CCC(C2CCN(C(=O)C34CC5CC(CC(C5)C3)C4)CC2)CC1` (centres unmarked) [adamanolol], the “known ELF3-MED23 PPI inhibition” value [2] is listed as “inhibit ELF3-MED23 protein-protein interaction (PPI)”.

Work on `CC(=O)N1N=C(c2ccccc2O)CC1c1ccc(O)cc1` (centres unmarked) [Compound 19, 1-[5-(4-Hydroxyphenyl)-3-(2-hydroxyphenyl)-4,5-dihydropyrazol-1-yl]-ethanone] yielded an IC50 [5] of over 50 µM, an IC50 [6] of over 50 µM and an IC50 [7] of over 50 µM. It also gave an inhibition at 10 µM [3] of 39% and an IC50 [8] of over 50 µM.

`COc1ccc(/C=C/C(=O)c2ccccc2O)c2ccccc12` [Compound 7, 1-(2-Hydroxyphenyl)-3-(4-methoxynaphthalen-1-yl)-propenone] showed an IC50 [5] of 16.13 ± 0.08 µM, an IC50 [6] of 15.56 ± 0.15 µM and an IC50 [7] of 11.4 ± 0.12 µM. For the same molecule, the inhibition at 10 µM [3] was 80% and the IC50 [8] was 14.18 ± 0.05 µM.
